Source: patent US20230165973A1, “COMPOSITIONS AND METHODS FOR DELIVERING MESSENGER RNA” (ARBUTUS BIOPHARMA CORPORATION, priority 2013, published 2023)
Values joined by “and” are separate entries in the source; they are usually repeats but may differ in a detail not shown here. Identical values can stand only once.

Assays:
naïve Balb/C mice = test: Luciferase liver model, aminolipid potency comparison (Example 2); type: in vivo, mouse; details: intravenously, 0.5 mg/kg total mRNA, six hours following injection
Experimental: (§1) The experiments described in this Example 2 used a firefly luciferase mRNA (“mLuc”), fully modified with pseudouridine and 5-methylcytidine replacing uridine and cytidine respectively. The LNP formulation used in these studies have the following general lipid composition (molar ratios): PEG-lipid (PEG2000-C-DMA (1.6 mol %); appropriate aminolipid (54.6 mol %); cholesterol (32.8 mol %); and DSPC (10.9 mol %). A lipid stock was prepared with the appropriate lipids dissolved in ethanol (12.6 mM). The mLuc stock was made up in a 40 mM EDTA buffer at 0.366 mg/mL in 40 mM EDTA. The two stocks were combined using the Jeffs et al method (Pharm. Research (2005), 22(3), pages 362-372), blending in a t-connector and diluted into Phosphate Buffered Saline, pH 7.4. Buffer exchange was then performed via overnight bag dialysis against 10× volume of PBS. After dialysis, LNP were concentrated by centrifugation in Vivaspin-6 or Vivaspin-20 units (MWCO 100 k) from GE Healthcare. The LNP were then sterile filtered (0.2 μm filter). Concentration of the LNP was determined using RiboGreen and a Varian Cary Eclipse Fluorimeter. Particle size and polydispersity were determined using a Malvern Nano Series Zetasizer.
LNP containing a luciferase mRNA payload were dosed at 0.5 mg/kg in naïve Balb/C mice (n=3). Six hours following injection, the mice were euthanized and livers were removed, weighed, and placed in lysing matrix tubes (containing one ceramic bead) on ice. PBS treatment groups were included to determine the background level of quenching of luciferase activity caused by the tissue homogenate in the Luciferase assay. Following collection, the tissues from these PBS treated animals were spiked with 50 μL of 100 ng/mL Luciferase solution in 1×CCLR (Cell Culture Lysis Reagent). Tissues were stored at −80° C. until Luciferase assay was performed.
(§2) All sample processing procedures were performed on ice. Tissues were homogenized and centrifuged in an Eppendorf microfuge at 3000 rpm & 4° C. for 10 minutes. After centrifugation, 20 μL of homogenate was aliquoted in duplicate into a white 96-well luminometer plate. Firefly luciferase […] was then analyzed on the EG&G Berthold Microplate Luminometer LB using the Promega Luciferase Assay System. The luciferase activity within the wells was determined by comparing the resulting RLUs for the homogenates to a standard curve prepared from 20 μL of firefly luciferase. A quenching factor was assigned to each tissue to control for natural quenching from the homogenates. This was determined using luciferase-spiked tissue from PBS treated mice.
The various formulations described were also assessed for potency in the mouse liver model. As an additional control, the use of the commercially available delivery reagent TransIT (Mirus) has been described in the literature for delivery of mRNA. A 0.05 mg/mL solution of TransIT-mRNA complex was prepared as follows. 50 μL of 1 mg/mL mRNA was added to 860 μL of DMEM, and to this solution the reagents from the TransIT-mRNA kit (Mirus) were added. In sequential order, 35 μL of the mRNA Boost reagent was added followed by 55 μL of the TransIT-mRNA reagent. The final solution was then incubated for 2-5 minutes before intravenous or intraperitoneal dosing.
All formulations were administered intravenously at a dose of 0.5 mg/kg total mRNA.

[1] = Formulability: LNP particle size, polydispersity and mRNA encapsulation (Example 2); type: physicochemical; details: mLuc LNP with the aminolipid at 54.6 mol %; 12.6 mM lipid stock
Experimental: as §1
The effect of the choice of aminolipid on parameters such as formulability and potency in the mRNA formulations was examined. As benchmarks, we selected the dilinoleyl lipids 5, 6, 7, and 8. […] We also selected a range of lipids with hydrophobic domains consisting of multiple (3 or 4) alkyl chains; 10, 9, 11, 13, 14, 17, and 18. Formulations were prepared as described above, using a 12.6 mM lipid stock.

[2] = Reproducibility of lipid particle formulation; type: physicochemical; details: multiple mLuc LNP formulations; lipid stock 8.3-19.0 mM total lipid
Experimental: Two aminolipids were selected to examine the reproducibility of lipid particle formulation. The benchmark dilinoleyl aminolipid MC3 was compared to the short trialkyl lipid 13-B43.
Multiple formulations were made, using the following composition (expressed as molar percentages): PEG-lipid (PEG2000-C-DMA) (1.6 mol %); amino lipid (54.6 mol %); cholesterol (32.8 mol %); and DSPC (10.9 mol %), according to the general procedures described above. The lipid stock was prepared in ethanol (ranging from 8.3-19.0 mM total lipid). The mRNA stock was prepared at 0.366 mg/mL in 40 mM EDTA. Buffer exchange was then performed via overnight bag dialysis against 10× volume of PBS. Samples were then concentrated to […] mRNA by centrifugation in Vivaspin-20 units (MWCO 100 k) from GE Healthcare. The LNP were then sterile filtered. Concentration of the LNP was determined using RiboGreen and a Varian Cary Eclipse Fluorimeter. Particle size and polydispersity were determined using a Malvern Nano Series Zetasizer.

Balb/C mice = test: Luciferase assay of Example 1 with tetraalkyl lipids, liver (Example 8); type: in vivo, mouse; details: particles comprising the lipid, assay described in Example 1
Experimental: In the liver model, LNP were dosed at 0.5 mg/kg in the naïve Balb/C mice (n=5). Six hours following injection, the mice were euthanized and the livers were removed, weighed, and placed in lysing matrix tubes (containing one ceramic bead) on ice.
as §2, with “rpm at” for “rpm &”, “resulting Relative Light Units (RLUs)” for “resulting RLUs”
In particular, the tetraalkyl lipids mediated an enhanced level of delivery of luciferase mRNA to living cells than the established benchmark dialkyl lipid 8 shown in Table 8.

SMILES | Luciferase protein in ng per g of liver (naïve Balb/C mice) | % Encaps (Percentage Encapsulation) [1] [%] | PDI (polydispersity index) [1] | Zavg (average lipid particle diameter) [1] [nm] | % Encaps of mLuc [2] | Particle size [2] | Polydispersity Index [2] | Activity in luciferase assay (Balb/C mice)
CCCCC/C=C\C/C=C\CCCCCCCCC(CCCCCCCC/C=C\C/C=C\CCCCC)OC(=O)CCCN(C)C [Compound 7, (6Z,9Z,28Z,31Z)-heptatriaconta-6,9,28,31-tetraen-19-yl 4-(dimethylamino)butanoate] | 369.85 ng per g of liver | 50 | 0.11 | 158 | 56% and 63% and 49% and 50% and 69% and 52% | 134 nm and 151 nm and 158 nm and 119 nm | 0.11 and 0.07 and 0.08 and 0.14 and 0.12 | 
CCCCC/C=C\C/C=C\CCCCCCCCC(CCCCCCCC/C=C\C/C=C\CCCCC)OCCCN(C)C [Compound 8] | 264.90 ng per g of liver | 57 | 0.13 | 144 |  |  |  | 774,159 pg/g liver tissue
CCCCC/C=C\CCCC(CCC/C=C\CCCCC)C(CCC/C=C\CCCCC)OC(=O)CCCN(C)C (stereo not drawn) [Compound 9] | 968.83 ng per g of liver | 62 | 0.06 | 95 |  |  |  | 
CCCCC/C=C\C/C=C\CCCCCCCCC(OC(=O)CCCCN(C)CC)C(O)(CCCCCCCC/C=C\C/C=C\CCCCC)CCCCCCCC/C=C\C/C=C\CCCCC (stereo not drawn) [Compound 10, (6Z,9Z,29Z,32Z)-20-hydroxy-20-((9Z,12Z)-octadeca-9,12-dienyl)octatriaconta-6,9,29,32-tetraen-19-yl 5-(ethyl(methyl)amino)pentanoate] | 203.47 ng per g of liver |  |  |  |  |  |  | 
CCC/C=C\CCC(CC/C=C\CCC)CC(OC(=O)CCCCN(C)C)C(CC/C=C\CCC)CC/C=C\CCC (stereo not drawn) [Compound 18] | 1388.39 ng per g of liver | 88 | 0.08 | 117 |  |  |  | 
CCCCC/C=C\CCCC(CCC/C=C\CCCCC)C(CC/C=C\CCCCC)OC(=O)CCCCN(C)C (stereo not drawn) [Compound 19] |  | 78 | 0.10 | 138 |  |  |  | 
CCCCCCCCC(CCCCCC)CC(CC(CCCCCC)CCCCCCCC)OC(=O)CCCCN(C)C (stereo not drawn) [Compound 35, 9,13-dihexylhenicosan-11-yl 5-(dimethylamino)pentanoate] |  |  |  |  |  |  |  | 1,412,464 pg/g liver tissue
CCCCCCCCC(CCCCCC)CC(CC(CCCCCC)CCCCCCCC)OC(=O)CCCCCN(C)C (stereo not drawn) [Compound 37, 9,13-dihexylhenicosan-11-yl 6-(dimethylamino)hexanoate] |  |  |  |  |  |  |  | 2,228,526 pg/g liver tissue
CCCCC/C=C\CCCC(CCC/C=C\CCCCC)C(CC(CCCC)CCCCCC)OC(=O)CCCCN(C)C (stereo not drawn) [Compound 43, (Z)-7-butyl-10-((Z)-dec-4-en-1-yl)icos-14-en-9-yl 5-(dimethylamino)pentanoate] |  |  |  |  |  |  |  | 919,590 pg/g liver tissue
